From ChEMBL document CHEMBL1201862, “PubChem BioAssay data set” (2004)
Active and inactive are the calls of the source.

Key:
[1] = target: T1, Heat shock factor protein 1 (Mus musculus, UniProt P38532); assay: enhancement of HSF1-driven luciferase signal – cell-based, NIH3T3, luminescence, dose retest, confirmation (AID 435004); type: functional;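 note: stress induced by proteasome inhibitor MG132 added 30 min after compound; luciferase reporter driven by HSF1 response element in NIH3T3 cells; actives raise luminescence as potentiators of the MG132 stress response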
T1 sequence (P38532 whole entry): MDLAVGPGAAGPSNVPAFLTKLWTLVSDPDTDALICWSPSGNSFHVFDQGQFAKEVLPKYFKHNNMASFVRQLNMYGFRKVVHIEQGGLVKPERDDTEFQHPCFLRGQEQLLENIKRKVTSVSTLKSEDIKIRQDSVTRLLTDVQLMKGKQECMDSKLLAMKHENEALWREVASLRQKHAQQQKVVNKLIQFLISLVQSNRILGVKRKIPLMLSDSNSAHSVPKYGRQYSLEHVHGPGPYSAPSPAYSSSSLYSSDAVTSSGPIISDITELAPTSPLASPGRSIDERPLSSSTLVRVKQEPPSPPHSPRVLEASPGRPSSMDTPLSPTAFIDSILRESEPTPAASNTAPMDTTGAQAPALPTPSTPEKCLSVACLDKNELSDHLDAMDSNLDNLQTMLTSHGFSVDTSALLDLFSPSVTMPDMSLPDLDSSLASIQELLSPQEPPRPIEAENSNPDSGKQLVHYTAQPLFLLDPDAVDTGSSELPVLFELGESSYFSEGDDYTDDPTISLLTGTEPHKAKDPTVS

[2] = luciferase reporter signal suppression in cells – H4 neuroglioma cells, luminescence, dose response (AID 1990); type: functional, cell-based
[3] = Luminescence Cell-Based Dose Response HTS to Identify Inhibitors of 5'UTR Stem-Loop Driven Prion Protein mRNA Translation in H4 Neuroglioblastoma Cells. [Related pubchem assays: 1827 (Project Summary), 1813 (Primary HTS)]; type: functional
[4] = alpha-synuclein stem-loop luciferase translation blockers – H4 neuroglioma cells, luminescence, confirmation (AID 1988); type: functional, cell-based
Cytochrome P450 3A4 = Cytochrome P450 3A4 (Homo sapiens, UniProt P08684);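 note: CYP3A4 tested as one member of a cytochrome P450 panel screen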
Cytochrome P450 1A2 = target: T2, Cytochrome P450 1A2 (Homo sapiens, UniProt P05177);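 note: PubChem cytochrome P450 panel assay, CYP1A2 panel member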
T2 sequence (P05177 whole entry): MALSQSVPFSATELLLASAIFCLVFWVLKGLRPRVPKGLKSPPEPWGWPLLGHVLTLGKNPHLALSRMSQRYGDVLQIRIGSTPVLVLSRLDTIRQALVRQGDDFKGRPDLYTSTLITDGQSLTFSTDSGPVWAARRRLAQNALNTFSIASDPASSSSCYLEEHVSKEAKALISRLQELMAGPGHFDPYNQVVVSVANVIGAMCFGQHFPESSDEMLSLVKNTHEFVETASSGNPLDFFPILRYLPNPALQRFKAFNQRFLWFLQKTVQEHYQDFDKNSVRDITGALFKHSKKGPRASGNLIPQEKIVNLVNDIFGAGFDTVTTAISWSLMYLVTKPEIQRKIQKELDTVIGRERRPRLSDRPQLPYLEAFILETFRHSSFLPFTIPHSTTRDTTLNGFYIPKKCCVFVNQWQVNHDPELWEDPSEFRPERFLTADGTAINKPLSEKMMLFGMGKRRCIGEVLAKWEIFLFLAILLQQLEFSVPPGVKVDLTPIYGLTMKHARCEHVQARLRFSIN

Cytochrome P450 2C19 = Cytochrome P450 2C19 (Homo sapiens, UniProt P33261); assay: Cytochrome panel assay with activity outcomes. Panel member name: p450-cyp2c19 Compounds with AC50 equal or less than 10 uM are considered active; type: functional; conditions: read-out: AC50
Cytochrome P450 2C9 = Cytochrome P450 2C9 (Homo sapiens, UniProt P11712)
[5] = target: T3, Corticotropin-releasing factor receptor 2/Corticotropin-releasing factor-binding protein (Homo sapiens, UniProt P24387+Q13324); assay: activators of CRF receptor 2 with binding protein – uHTS hits, confirmation (AID 602473); type: functional; conditions: read-out: EC50_Mean
T3 sequence (Q13324 whole entry): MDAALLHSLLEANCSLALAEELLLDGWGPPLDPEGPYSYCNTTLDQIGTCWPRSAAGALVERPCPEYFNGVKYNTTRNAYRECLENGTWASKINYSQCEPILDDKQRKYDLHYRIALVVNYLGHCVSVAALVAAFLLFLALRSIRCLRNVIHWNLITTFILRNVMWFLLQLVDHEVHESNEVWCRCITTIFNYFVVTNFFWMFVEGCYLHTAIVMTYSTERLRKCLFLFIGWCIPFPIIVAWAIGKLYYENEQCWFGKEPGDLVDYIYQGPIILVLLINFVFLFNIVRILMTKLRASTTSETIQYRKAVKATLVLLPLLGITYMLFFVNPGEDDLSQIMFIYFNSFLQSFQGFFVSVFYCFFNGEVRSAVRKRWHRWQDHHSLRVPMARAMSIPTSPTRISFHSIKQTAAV
T3 sequence (P24387 whole entry): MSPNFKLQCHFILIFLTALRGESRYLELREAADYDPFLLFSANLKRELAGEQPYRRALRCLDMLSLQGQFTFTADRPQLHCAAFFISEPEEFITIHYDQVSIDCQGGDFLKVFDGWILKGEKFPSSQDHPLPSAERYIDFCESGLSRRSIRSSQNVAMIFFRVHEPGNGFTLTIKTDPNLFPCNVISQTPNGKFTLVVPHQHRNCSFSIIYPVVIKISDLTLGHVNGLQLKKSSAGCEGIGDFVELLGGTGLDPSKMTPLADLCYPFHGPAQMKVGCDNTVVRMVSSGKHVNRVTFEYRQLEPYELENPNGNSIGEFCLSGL

[6] = target: T3, Corticotropin-releasing factor receptor 2/Corticotropin-releasing factor-binding protein; assay: Dose Response confirmation of uHTS hits for small molecule antagonists of the CRF-binding protein and CRF-R2 receptor complex.; type: functional; conditions: read-out: IC50_Mean
[7] = target: T4, Rac GTPase-activating protein 1 (Homo sapiens, UniProt Q9H0H5); assay: blockers of MgcRacGAP-driven Rac1 GTP hydrolysis – biochemical, ADP Hunter fluorescence, primary and confirmatory, confirmation (AID 624330); type: functional
T4 sequence (Q9H0H5 whole entry): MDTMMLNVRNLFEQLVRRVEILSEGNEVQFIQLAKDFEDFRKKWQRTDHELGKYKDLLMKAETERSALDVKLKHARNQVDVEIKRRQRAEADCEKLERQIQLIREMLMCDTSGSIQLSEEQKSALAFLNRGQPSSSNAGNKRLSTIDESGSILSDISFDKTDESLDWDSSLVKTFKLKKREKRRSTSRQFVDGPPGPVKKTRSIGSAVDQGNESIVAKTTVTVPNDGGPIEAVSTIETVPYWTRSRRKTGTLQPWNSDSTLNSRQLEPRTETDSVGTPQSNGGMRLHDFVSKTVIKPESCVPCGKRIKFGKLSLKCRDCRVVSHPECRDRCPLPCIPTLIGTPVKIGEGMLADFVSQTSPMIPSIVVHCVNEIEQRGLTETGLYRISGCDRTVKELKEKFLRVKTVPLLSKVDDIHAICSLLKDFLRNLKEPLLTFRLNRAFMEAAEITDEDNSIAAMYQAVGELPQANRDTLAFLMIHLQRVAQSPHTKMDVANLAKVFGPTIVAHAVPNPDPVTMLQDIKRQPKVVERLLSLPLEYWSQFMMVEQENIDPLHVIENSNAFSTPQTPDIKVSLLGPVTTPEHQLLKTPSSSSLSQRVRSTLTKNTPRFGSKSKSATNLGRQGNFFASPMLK

[8] = Trypanosoma cruzi growth suppression in host cells – NIH3T3 host cells, beta-gal luminescence, confirmation (AID 2044); type: functional, cell-based;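 note: intracellular parasites grown in NIH/3T3 mouse fibroblasts as host cells; luminescent beta-galactosidase reporter signal from transgenic T. cruzi replicating inside host cells; inhibitors lower the luminescence signal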
[9] = NIH3T3 cell viability loss – ATP luminescence, mouse fibroblasts, counter-screen, dose response (AID 2010); type: functional, cell-based;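 note: cells exposed to compound for about 90 hours before reading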

Cytochrome P450 2C19, sequence (P33261 whole entry): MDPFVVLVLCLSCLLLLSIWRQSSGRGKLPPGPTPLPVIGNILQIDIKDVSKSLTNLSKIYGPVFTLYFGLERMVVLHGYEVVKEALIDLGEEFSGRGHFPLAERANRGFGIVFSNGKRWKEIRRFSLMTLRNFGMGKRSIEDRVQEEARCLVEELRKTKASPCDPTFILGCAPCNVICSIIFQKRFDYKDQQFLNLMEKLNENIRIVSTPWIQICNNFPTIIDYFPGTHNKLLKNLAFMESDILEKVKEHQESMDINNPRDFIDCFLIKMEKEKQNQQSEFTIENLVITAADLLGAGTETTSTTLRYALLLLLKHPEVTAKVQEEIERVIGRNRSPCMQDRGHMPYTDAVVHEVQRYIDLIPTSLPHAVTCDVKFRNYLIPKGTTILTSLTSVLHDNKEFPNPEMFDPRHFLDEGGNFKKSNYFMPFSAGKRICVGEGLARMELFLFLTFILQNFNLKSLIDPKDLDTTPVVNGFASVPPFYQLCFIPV
Cytochrome P450 3A4, sequence (P08684 whole entry): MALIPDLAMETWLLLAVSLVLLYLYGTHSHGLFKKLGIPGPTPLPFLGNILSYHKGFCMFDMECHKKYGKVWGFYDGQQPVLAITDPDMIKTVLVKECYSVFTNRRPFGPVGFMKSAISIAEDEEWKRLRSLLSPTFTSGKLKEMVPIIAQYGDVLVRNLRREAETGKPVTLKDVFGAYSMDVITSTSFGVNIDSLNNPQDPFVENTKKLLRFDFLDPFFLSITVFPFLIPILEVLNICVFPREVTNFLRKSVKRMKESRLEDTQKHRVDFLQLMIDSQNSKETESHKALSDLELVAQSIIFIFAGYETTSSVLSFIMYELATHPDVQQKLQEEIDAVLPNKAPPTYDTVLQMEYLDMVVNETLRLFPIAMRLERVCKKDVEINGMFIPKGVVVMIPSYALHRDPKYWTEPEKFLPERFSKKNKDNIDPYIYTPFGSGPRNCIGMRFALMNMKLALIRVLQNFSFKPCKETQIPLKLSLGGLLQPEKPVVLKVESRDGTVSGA
Cytochrome P450 2C9, sequence (P11712 whole entry): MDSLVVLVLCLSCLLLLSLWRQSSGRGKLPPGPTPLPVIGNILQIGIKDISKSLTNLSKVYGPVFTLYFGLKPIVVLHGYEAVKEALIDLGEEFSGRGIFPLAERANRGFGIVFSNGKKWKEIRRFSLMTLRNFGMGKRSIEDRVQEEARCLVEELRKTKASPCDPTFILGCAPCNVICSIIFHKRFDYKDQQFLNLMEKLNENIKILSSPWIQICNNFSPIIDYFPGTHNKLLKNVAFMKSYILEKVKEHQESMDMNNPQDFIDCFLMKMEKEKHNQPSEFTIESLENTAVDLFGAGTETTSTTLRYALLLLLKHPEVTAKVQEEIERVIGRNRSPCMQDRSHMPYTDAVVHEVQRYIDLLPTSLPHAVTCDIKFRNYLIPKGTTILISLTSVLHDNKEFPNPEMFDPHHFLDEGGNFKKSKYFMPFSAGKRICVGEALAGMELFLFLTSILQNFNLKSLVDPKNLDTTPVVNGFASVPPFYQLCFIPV

Cc1cccc(S(=O)(=O)NCCC(=O)OC(C)C(=O)NC(=O)NC2CCCCC2)c1 (stereo not drawn)
EC50 [1]: > 260 µM (inactive)

N#Cc1ccsc1NC(=O)COC(=O)CCCSc1nc2ccccc2s1
EC50 [2]: > 120 µM (not active) | EC50 [3]: > 120 µM (not active) | EC50 [4]: 16.1 µM (active)

O=C(c1ccco1)N(Cc1ccc([N+](=O)[O-])cc1)c1ccc(Br)cc1
EC50 [1]: > 260 µM (inactive)

COc1ccc(C(=O)CC(=O)C(=O)Nc2cc(OC)c(OC)c(OC)c2)cc1
EC50 [1]: > 260 µM (inactive)

O=c1c(-c2ccc(Cl)cc2)nc2cnc(N3CCNCC3)nc2n1Cc1ccc(F)cc1
AC50 (Cytochrome P450 3A4): 12.6 µM (inconclusive) | AC50 (Cytochrome P450 1A2): 15.8 µM (inconclusive) | AC50 (Cytochrome P450 2C19): 39.8 µM (inconclusive)

COC(=O)[C@@]1(Cc2ccc(F)cc2)[C@H]2c3cc(C(=O)N(C)C)n(Cc4cccc5ccccc45)c3C[C@H]2CN1C(=O)c1ccccc1
AC50 (Cytochrome P450 1A2): 6.31 µM (inconclusive)

Cc1nn(C(C)C(=O)NCCCN2CCCCC2C)c(=O)c2c1sc1ccccc12 (stereo not drawn)
EC50 [1]: > 260 µM (inactive)

O=c1c(-c2ccccc2)nc2cnc(N3CCNCC3)nc2n1Cc1ccc(F)cc1
AC50 (Cytochrome P450 1A2): 20 µM (inconclusive) | AC50 (Cytochrome P450 2C19): 31.6 µM (inconclusive)

COc1cccc(Cn2c(=O)c(CCc3ccccc3)nc3cncnc32)c1
AC50 (Cytochrome P450 2C9): 12.6 µM (inconclusive) | AC50 (Cytochrome P450 1A2): 12.6 µM (inconclusive) | AC50 (Cytochrome P450 2C19): 25.1 µM (inconclusive)

COc1ccc(Nc2ccccc2)c(C)c1
EC50 [5]: > 53 µM (inactive) | IC50 [6]: > 47.1 µM (inactive) | IC50 [7]: 44.9 µM (active)

Brc1ccccc1Cn1c(-c2cncs2)nc2ccccc21
EC50 [2]: 17.1 µM (active) | EC50 [3]: > 120 µM (not active) | EC50 [4]: > 120 µM (not active)

Cc1ccc(C(=O)Cn2nc(C(=O)O)c3ccccc3c2=O)cc1C
EC50 [1]: > 260 µM (inactive)

CCN1CCSc2ccc(C(=O)NCc3cccc(Br)c3)cc21
EC50 [1]: > 260 µM (inactive)

O=C(Nc1ccc2c(c1)OCO2)c1nn(-c2ccccc2)c(=O)c2ccccc12
EC50 [2]: > 120 µM (not active) | EC50 [3]: 24 µM (active) | EC50 [4]: > 120 µM (not active)

Cc1ccc(Cl)cc1N1CCN(C(=O)Cc2c(C(=O)O)[nH]c3ccc(Cl)cc23)CC1
EC50 [5]: > 53 µM (inactive) | IC50 [6]: > 47.1 µM (inactive)

Cc1ccc(-n2ccc(=O)c(-c3ccnc(SCc4cccc(Cl)c4)n3)n2)cc1
AC50 (Cytochrome P450 1A2): 14.1 µM (inconclusive)

COC(=O)C1=C(C)N(Cc2ccc(C)cc2)C(=O)/C1=C\c1cc(OC)c(OC)c(OC)c1
EC50 [1]: 11.6 µM (active)

COc1ccc(CNC2CCSc3ccccc32)cc1OC (stereo not drawn)
EC50 [1]: > 260 µM (inactive)

Cn1c(C(=O)OC(C(=O)NC(C)(C)C)c2cccnc2)cc2sccc21 (stereo not drawn)
EC50 [8]: 1.23 µM (active) | EC50 [1]: > 260 µM (inactive) | EC50 [9]: 48.4 µM (active)

Nc1c(S(=O)(=O)c2ccccc2)c2nc3ccccc3nc2n1Cc1ccco1
AC50 (Cytochrome P450 1A2): 22.4 µM (inconclusive)

N[C@H](C(=O)O)C1[C@H](C(=O)O)[C@H]1C(=O)O (stereo partly drawn)
AC50 (Cytochrome P450 1A2): 31.6 µM (inconclusive) | AC50 (Cytochrome P450 2C19): 31.6 µM (inconclusive)

CSc1nsc(/C=C/Nc2ccc(Cl)cc2)c1C#N
AC50 (Cytochrome P450 1A2): 5.62 µM (inconclusive) | AC50 (Cytochrome P450 2C19): 3.55 µM (inconclusive)

COc1ccc(N(CC(=O)Nc2ccc(S(=O)(=O)N3CCCCC3)cc2)S(C)(=O)=O)cc1OC
EC50 [2]: > 120 µM (not active) | EC50 [3]: > 120 µM (not active) | EC50 [4]: > 120 µM (not active)

Cc1cc2occ(CC(=O)NCc3cccs3)c2cc1C(C)C
EC50 [1]: > 260 µM (inactive)

COC(=O)[C@@]1(Cc2ccc(OC)cc2)[C@H]2c3cc(C(=O)N4CCCC4)n(Cc4ccc(Cl)c(C(F)(F)F)c4)c3C[C@H]2CN1C(=O)c1ccccc1
AC50 (Cytochrome P450 3A4): 1.26 µM (inconclusive) | AC50 (Cytochrome P450 1A2): 12.6 µM (inconclusive)

COCCN(C(=O)C(C)C)c1nnc(-c2ccc(C)cc2)s1
AC50 (Cytochrome P450 1A2): 12.6 µM (inconclusive)

Cc1cccn2c(=O)nc(SCC(=O)N3N=C(c4cccs4)CC3c3ccc(F)cc3)nc12 (stereo not drawn)
EC50 [8]: 1.48 µM (active) | EC50 [1]: > 260 µM (inactive) | EC50 [9]: 11.6 µM (active)

CC(=O)Nc1ccc2c(c1)N(C(=O)CN(C)C)c1ccccc1CC2
EC50 [1]: > 260 µM (inactive)

Cc1cc(F)c(F)c(C(=O)N2CCOCC2)c1Cl
EC50 [1]: > 260 µM (inactive)

O=C(COC(=O)CCc1ccc(S(=O)(=O)N2CCOCC2)cc1)Nc1ccccc1OC(F)F
EC50 [5]: > 53 µM (inactive) | IC50 [6]: > 47.1 µM (inactive)

Cc1nnsc1-c1onc(C)c1C(=O)O/N=C/c1ccc(Cl)cc1
EC50 [5]: > 53 µM (inactive) | IC50 [6]: > 47.1 µM (inactive)

Cc1ncc([N+](=O)[O-])n1CCOC(N)=O [BAMNIDAZOLE]
EC50 [5]: > 53 µM (inactive) | IC50 [6]: > 47.1 µM (inactive)
